PMC10897374, “Synthetic angiotensin II peptide derivatives confer protection against cerebral and severe non-cerebral malaria in murine models” (Scientific Reports, 2024)
Where a SMILES comes first, the peptide text is derived from it. Bridges are numbered along the chain shown (N, C = ends). Where no end group is shown, it is not given here.

Key:
Plasmodium berghei ANKA [1] = test: Severe non-cerebral malaria model: parasitemia and survival; format: in vivo; settings: BALB/c mice
Protocol: (§1) A cryopreserved sample of erythrocytes infected with P. berghei ANKA (kindly provided by Dr. Leonardo J. Carvalho, La Jolla University, San Diego, CA) was thawed and 1 × 10^6 erythrocytes infected with P. berghei ANKA were injected intraperitoneally (i.p.) in the C57BL/6 mice. Parasitemia was monitored from the prepatent period until parasitemia was sufficient for infection of the experimental animal groups (7 male mice per group), i.e., 5–8% parasitemia per mL of blood (injection of 200 µL in each mouse).
The same protocol was performed with 6- to 8-week-old BALB/c mice also provided from FIOCRUZ (8 male mice per group). […] After 3 days, parasitemia was evaluated by blood smear from a droplet of blood collected from the lateral tail vein of each animal and colored with the hematological Diff-Quick® kit. The survival of the animals was also monitored daily. […]
C57BL/6 (cerebral malaria model) and BALB/c (non-cerebral malaria model) mice received a single daily dose (100 ng Kg^−1 min^−1) of Ang II (brown line), Ang II-SS (orange line), VIPF (blue line), or vehicle (PBS, black line) for 5 days. […] Parasitemia was monitored by Diff-Quick stained blood smears from day 3 to day 7 for C57BL/6 mice (A) and from day 3 to day 9 for BALB/c mice (B). Percentage of survival for C57BL/6 mice (C) and BALB/c mice (D) mice was monitored daily starting on day 6 p.i. […]

Plasmodium berghei ANKA [2] = test: Experimental cerebral malaria (ECM) model: parasitemia and survival; format: in vivo, C57BL/6 mice
Protocol: Six- to eight-week-old male C57BL/6 mice were provided by the Oswaldo Cruz Foundation (FIOCRUZ—Rio de Janeiro, Brazil). The mice were housed in appropriate cages with free access to food and fresh water in a room with controlled temperature (22–24 °C) with a light/dark cycle of 12 h.
as §1
The same protocol was performed with 6- to 8-week-old BALB/c mice also provided from FIOCRUZ (8 male mice per group). Each group was treated one hour before infection (day zero) i.p. at 100 ng Kg^−1 for five consecutive days. The dose used was similar to that used for Ang II in in vivo studies, as described by Gallego-Delgado et al., 2015. […] After 3 days, parasitemia was evaluated by blood smear from a droplet of blood collected from the lateral tail vein of each animal and colored with the hematological Diff-Quick® kit. The survival of the animals was also monitored daily. […]

[3] = test system: C57BL/6 mice infected with P. berghei ANKA; test: SHIRPA behavioral tests in the ECM model; format: in vivo, mouse; settings: day 5 post-infection, difference of scores before and after infection, vs vehicle (PBS)
Source text: C57BL/6 mice were used for the experimental cerebral malaria model, and the assays were defined by the presence of at least two of the following clinical signs of neurological involvement: ataxia, paralysis of the limbs, poor correction reflex, convulsions, and coma. A series of SHIRPA tests (SmithKline Beecham, Harwell, Imperial College, Royal London Hospital, phenotype assessment) was used to evaluate behavioral, motor, and neurological changes during the development of the P. berghei infection. Tests aimed at evaluating cognitive and behavioral parameters were selected to assess brain impairment of the mice. The tests described below were initially performed on animals not yet infected at day 0. Next, the mice were treated and infected as described earlier. Five days after infection, the tests were repeated and the results were expressed as the difference between the sum of the scores before and after infection with P. berghei. […]
After five minutes of the test described above, the animals were transferred to the arena without being touched. The observation of the immediate reactions to the new environment was recorded for thirty seconds and a score was assigned.
While mice were still in the arena, the number of squares of 11 cm^2 of the arena that the animal stepped into with four legs at the same time was quantified for thirty seconds. […]

mouse muscle tissue = settings: cited from earlier work
Plasmodium = settings: same mouse model (ECM), infected mice treated with the ACE inhibitor; cited from earlier work

Compound | mouse survival (Plasmodium berghei ANKA [1]; 100 ng Kg−1 min−1 i.p. daily for 5 days, Kaplan–Meier, log rank vs vehicle, n = 8) | effect on parasitemia (Plasmodium berghei ANKA [1]; 100 ng Kg−1 min−1 i.p. daily until day 4 p.i., blood smear day 3 to 9 p.i., especially at day 9 p.i., vs vehicle) | mouse survival (Plasmodium berghei ANKA [2]; C57BL/6 mice (ECM), 100 ng Kg−1 min−1 i.p. daily for 5 days, Kaplan–Meier, log rank vs vehicle, n = 8) | parasitemia level at day 7 p.i. (Plasmodium berghei ANKA [2]; C57BL/6 mice, 100 ng Kg−1 min−1 i.p. daily until day 4 p.i., first dose 1 h before infection, blood smear, vehicle group reached 18% parasitemia) | SHIRPA behavioral score [3] | contractile activity (mouse muscle tissue) | effect on parasitemia (Plasmodium)
CDRVYIHPFC (disulfide 1-10 (inferred)) [Ang II-SS, disulfide bridge-constrained derivative of Ang II] | increased mouse survival | reduced parasitemia | increased mouse survival | approximately 10% | reduced the SHIRPA behavioral score | did not elicit significant contractile activity | 
C[C@H](CS)C(=O)N1CCC[C@H]1C(=O)O [captopril] |  |  |  |  |  |  | discrete but significant reduction in parasitemia
CC[C@H](C)[C@H](NC(=O)[C@@H](N)C(C)C)C(=O)N1CCC[C@H]1C(=O)N[C@@H](Cc1ccccc1)C(=O)O [VIPF] (H-VIPF-OH) |  |  |  |  |  | did not elicit significant contractile activity | 
